Consider 3 compounds from ChEMBL document CHEMBL1131682, “New photoaffinity analogs of paclitaxel” (1999).

The structures appear in SMILES notation.

Assay type in all cases: functional
Experiment [1] deals with A549. Kind of experiment: Inhibition of growth of human NSCL non small cell lung carcinoma cell line ([…]) after 72 hr of drug exposure.
The test system of experiment [2] is A121. Kind of experiment: Inhibition of growth of human ovarian tumor cell line (A121) after 72 hr of drug exposure.
Experiment [3] relates to HT-29. Kind of experiment: Inhibition of growth of human colon tumor cell line (HT-29) after 72 hr of drug exposure.
Experiment [4] deals with MCF7R. Kind of experiment: Inhibition the growth of doxorubicin resistant human breast tumor cell line (MCF-7-R) after 72 hr of drug exposure.
For experiment [5], the system named is MCF7. Kind of experiment: Inhibition of the growth of human breast tumor cell line (MCF-7) after 72 hr of drug exposure.

Regarding `CC(=O)O[C@@]12CO[C@@H]1C[C@H](O)[C@@]1(C)C(=O)[C@H](OC(=O)CCc3cccc(C(=O)c4ccccc4)c3)C3=C(C)C(OC(=O)[C@H](O)[C@@H](NC(=O)c4ccccc4)c4ccccc4)C[C@@](O)([C@@H](OC(=O)c4ccccc4)C12)C3(C)C` (stereo not given in full), the Inhibition (usually the drop in the measured response relative to a control, in per cent) in experiment [1] is 40.8%; in experiment [2], 32.8%; in experiment [3] it was 40.8%; in experiment [5], 20.7%. Further, the IC50 – broadly, the concentration needed to halve the response being measured – in experiment [4] is 1540 nM.

Take `CC(=O)O[C@H]1C(=O)[C@@]2(C)C([C@H](OC(=O)c3ccccc3)[C@]3(O)CC(OC(=O)[C@H](O)[C@@H](NC(=O)c4ccccc4)c4ccccc4)C(C)=C1C3(C)C)[C@]1(OC(C)=O)CO[C@@H]1C[C@@H]2OC(=O)CCc1cccc(C(=O)c2ccccc2)c1` (stereo not given in full): the Inhibition in experiment [1] is 13%; in experiment [2] it was 8.8%; in experiment [3], 6.5%; in experiment [5] it was 2.4%. Moreover, inhibition in experiment [4] was half-maximal at 450 nM (IC50).

Turning to `CC(=O)O[C@H]1C(=O)[C@@]2(C)[C@H]([C@H](OC(=O)c3ccccc3)[C@]3(O)C[C@H](OC(=O)[C@H](O)[C@@H](NC(=O)c4ccccc4)c4ccccc4)C(C)=C1C3(C)C)[C@]1(OC(C)=O)CO[C@@H]1C[C@@H]2O` [PACLITAXEL], the Inhibition in experiment [1] came out at 3.6%; in experiment [2] it was 6.1%; in experiment [3] it was 3.2%; in experiment [5] it was 1.7%. For the same compound, in experiment [4], the IC50 was determined as 300 nM.
